Reference: US10294228B2, “Breathing control modulating compounds, and methods of making and using same” (NEURAD LTD., priority 2015, dated 2019)
Entries after “also recorded” stand apart in the source; their conditions may differ. Where a name gives a salt, the structure may show the parent alone.

Assays:
[1] = system: morphine-tolerant rats (CSA model); experiment: Apnea hypopnea index and ventilation during sleep in rats receiving chronic morphine (CSA model); type: in vivo, rat; conditions: 10 mg/kg PO, FIG. 15
Description: Central sleep apnea (CSA) and hypopnea are especially prevalent in people on chronic opioid therapy. Accordingly, a novel rodent model of chronic opioid-induced sleep disordered breathing that mimics many features of the condition in people was developed.
Morphine was administered chronically to rats in their drinking water at a dose and duration that elicited morphine tolerance. Morphine sulfate was added to the drinking water of individually housed rats beginning at 0.1 mg/ml morphine and increasing the concentration in increments so that a final concentration of 0.6 mg/ml was achieved within 2 weeks of beginning morphine exposure. During the first three weeks after starting morphine administration, rats were acclimated to whole body plethysmography chambers.
Respiratory rate (fR), tidal volume (VT), minute volume (VE), and CSA and hypopnea frequency and length (i.e., duration of each apnea) were measured continuously while animals were unrestrained in whole-body plethysmography chambers. Animals breathed room air for the duration of the study, except where indicated for the hyperoxia validation study. […]
A respiratory waveform was generated from the expansion and contraction of the air that was exchanged between the animal and the chamber. […] The airflow signal was amplified and continuously recorded using PowerLab and LabChart 7.0. […]

rats = experiment: Sleep quantity, architecture and quality by EEG/EMG telemetry; type: in vivo, rat; conditions: 10 mg/kg PO
Description: All surgical and plethysmographic studies were approved by the IACUC committee of Galleon Pharmaceuticals. The study used rats implanted with dual biopotential electrodes that permitted continuous and simultaneous telemetric recordings of electroencephalogram (EEG) and electromyogram (EMG) waveforms. Three treatment conditions were assessed for their effects on sleep quantity, architecture, and quality: baseline (drug-naïve), (31a) (10 mg/kg PO) and vehicle (equal volume PO). Baseline and (31a) treatment study days were randomized. However, vehicle alone was assessed after each rat had completed drug nave and compound (31a) evaluations.
Standard aseptic technique was used for all surgical procedures. […]
Rats with implanted telemeters were allowed to remain in their home cages during data collection. […] EEG and EMG waveforms were recorded between 8 am and 3 pm each study day. […] For each rat, the three telemetry signals (EEG, EMG, and temperature) were routed from the receiver to the PowerLab and recorded using LabChart. […]
The principal aspects of these analyses were to quantify the magnitude of the EMG signal (i.e., the animals activity level) and the relative densities of EEG delta waves (0.5 to 4 Hz; predominant in NREM sleep) and EEG theta waves (6 to 10 Hz; predominant in REM sleep) during each 4-second epoch. […]

Q: What does the source list for `CCCNc1nc(NC)nc2c(NCC(C)(C)O)nc(NC)nc12` [Compound 31a, 1-(2,6-Bis-methylamino-8-propylamino-pyrimido[5,4-d]pyrimidin-4-ylamino)-2-methyl-propan-2-ol Hydrochloride]?
A: apnea-hypopnea index [1]: reduces; minute volume [1]: without significantly increasing; effects on sleep quantity, architecture, or quality (rats): not associated with any statistically significant effects; effects on sleep architecture (rats; compared to baseline (drug-naive), FIG. 24, Hydrochloride, 10 mg/kg): No significant differences; also recorded: does not produce effects
